Marks after values point to notes of the source that are not given here.
Test system: patients with advanced solid tumors
Test: phase I dose escalation: safety, DLT, MTD, RP2D (CTCAE v. 5)
Type: in vivo
Conditions: for maximum tolerated dose (MTD): oral once daily
Excerpt: Subsequent dosing cohorts were enrolled using a standard 3 + 3 design.
If any patient in any cohort of three patients developed a DLT during cycle 1, an additional three patients were recruited to expand the cohort to up to six evaluable patients. If two or more patients in any expanded cohort developed a DLT, this dose was considered non-tolerated, and dose escalation was discontinued. The MTD was defined as the highest dose level for which no more than one of six patients experienced a DLT.
Patients were continuously evaluated for adverse events throughout the study using the Common Terminology Criteria of Adverse Events (CTCAE v. 5). The patients underwent a clinical history and physical examination, an ECOG PS, a complete blood count (CBCs), chemistry, coagulation studies, urinalysis, a serum pregnancy test (as applicable), a triplicate ECG, an ophthalmology examination, and baseline tumor assessment at screening. During cycle 1, weekly history and physical examination, CBC, chemistry, coagulation parameters, urinalysis, and triplicate ECGs were performed; in subsequent cycles, weekly labs were limited to a CBC. Repeat ophthalmology examinations were performed at cycle 3, day 1, and at the end of treatment. Repeat tumor assessment was performed every 2 cycles (6 weeks) in accordance with RECIST 1.1.

[1] = All Continuous Patients (N=8), G3
[2] = All Continuous Patients (N=8), G4

CC(C)[C@H](N)C(=O)SCC/C=C/[C@@H]1CC(=O)NCc2nc(cs2)C(=O)NC(C)(C)C(=O)N[C@@H](C(C)C)C(=O)O1 [OKI-179, Bocodepsin]
3 (50) N (%): TEAE: Constipation (continuous, 200 mg (N=6), G2)
5.9%: grade > 3 treatment-related TEAE: anorexia (all patients (n = 34)) | grade > 3 treatment-related TEAE: decreased platelet count (all patients (n = 34)) | grade > 3 treatment-related TEAE: prolonged QT interval on ECG (all patients (n = 34))
300 mg: recommended phase 2 dose (RP2D) (daily on a 4:3 schedule)
35.3%: TEAE: Anemia (all patients (n = 34))
75%: TEAE: Constipation (continuous dosing cohort) | TEAE: Nausea (continuous dosing cohort)
Eleven: patients with treatment-related TEAEs leading to dose holding or reduction (all patients (n = 34))
25%: grade 4 thrombocytopenia events (continuous dosing cohort, two events, in the 300 mg cohort)
2 (33) N (%): TEAE: Constipation (continuous, 200 mg (N=6), G1) | TEAE: Diarrhea (continuous, 200 mg (N=6), G1) | TEAE: Headache (continuous, 200 mg (N=6), G1) | TEAE: Nausea (continuous, 200 mg (N=6), G1) | TEAE: Fatigue (continuous, 200 mg (N=6), G2) | TEAE: Nausea (continuous, 200 mg (N=6), G2)
11.8%: grade > 3 treatment-related TEAE: anemia (all patients (n = 34))
2 (25) N (%): TEAE: Platelet count decreased [2]
three: patients with grade 3 QT prolongation (whole study)
50%: TEAE: Fatigue (continuous dosing cohort) | TEAE: platelet count decrease (continuous dosing cohort)
0 N (%): TEAE: Headache [1] | TEAE: Nausea [1] | TEAE: Pain [1] | TEAE: Platelet count decreased [1] | TEAE: Abdominal pain [2] | TEAE: Anemia [2] | TEAE: Constipation [2] | TEAE: Decreased appetite [2] | TEAE: Diarrhea [2] | TEAE: Dyspepsia [2] | TEAE: ECG QT prolonged [2] | TEAE: Fatigue [2] | TEAE: Headache [2] | TEAE: Nausea [2] | TEAE: Pain [2] | TEAE: Anemia (continuous, 200 mg (N=6), G1) | TEAE: Decreased appetite (continuous, 200 mg (N=6), G2) | TEAE: Diarrhea (continuous, 200 mg (N=6), G2) | TEAE: Headache (continuous, 200 mg (N=6), G2) | TEAE: Abdominal pain (continuous, 200 mg (N=6), G3) | TEAE: Anemia (continuous, 200 mg (N=6), G3) | TEAE: Constipation (continuous, 200 mg (N=6), G3) | TEAE: Decreased appetite (continuous, 200 mg (N=6), G3) | TEAE: Diarrhea (continuous, 200 mg (N=6), G3) | TEAE: Dyspepsia (continuous, 200 mg (N=6), G3) | TEAE: ECG QT prolonged (continuous, 200 mg (N=6), G3) | TEAE: Fatigue (continuous, 200 mg (N=6), G3) | TEAE: Headache (continuous, 200 mg (N=6), G3) | TEAE: Nausea (continuous, 200 mg (N=6), G3) | TEAE: Pain (continuous, 200 mg (N=6), G3) | TEAE: Platelet count decreased (continuous, 200 mg (N=6), G3) | TEAE: Abdominal pain (continuous, 200 mg (N=6), G4) | TEAE: Anemia (continuous, 200 mg (N=6), G4) | TEAE: Constipation (continuous, 200 mg (N=6), G4) | TEAE: Decreased appetite (continuous, 200 mg (N=6), G4) | TEAE: Diarrhea (continuous, 200 mg (N=6), G4) | TEAE: Dyspepsia (continuous, 200 mg (N=6), G4) | TEAE: ECG QT prolonged (continuous, 200 mg (N=6), G4) | TEAE: Fatigue (continuous, 200 mg (N=6), G4) | TEAE: Headache (continuous, 200 mg (N=6), G4) | TEAE: Nausea (continuous, 200 mg (N=6), G4) | TEAE: Pain (continuous, 200 mg (N=6), G4) | TEAE: Platelet count decreased (continuous, 200 mg (N=6), G4) | TEAE: Abdominal pain (continuous, 300 mg (N=2), G1) | TEAE: Anemia (continuous, 300 mg (N=2), G1) | TEAE: Decreased appetite (continuous, 300 mg (N=2), G1) | TEAE: Dyspepsia (continuous, 300 mg (N=2), G1) | TEAE: ECG QT prolonged (continuous, 300 mg (N=2), G1) | TEAE: Fatigue (continuous, 300 mg (N=2), G1) | TEAE: Pain (continuous, 300 mg (N=2), G1) | TEAE: Platelet count decreased (continuous, 300 mg (N=2), G1) | TEAE: Abdominal pain (continuous, 300 mg (N=2), G2) | TEAE: Constipation (continuous, 300 mg (N=2), G2) | TEAE: Decreased appetite (continuous, 300 mg (N=2), G2) | TEAE: Diarrhea (continuous, 300 mg (N=2), G2) | TEAE: Dyspepsia (continuous, 300 mg (N=2), G2) | TEAE: ECG QT prolonged (continuous, 300 mg (N=2), G2) | TEAE: Fatigue (continuous, 300 mg (N=2), G2) | TEAE: Headache (continuous, 300 mg (N=2), G2) | TEAE: Nausea (continuous, 300 mg (N=2), G2) | TEAE: Pain (continuous, 300 mg (N=2), G2) | TEAE: Platelet count decreased (continuous, 300 mg (N=2), G2) | TEAE: Abdominal pain (continuous, 300 mg (N=2), G3) | TEAE: Anemia (continuous, 300 mg (N=2), G3) | TEAE: Constipation (continuous, 300 mg (N=2), G3) | TEAE: Diarrhea (continuous, 300 mg (N=2), G3) | TEAE: Dyspepsia (continuous, 300 mg (N=2), G3) | TEAE: ECG QT prolonged (continuous, 300 mg (N=2), G3) | TEAE: Headache (continuous, 300 mg (N=2), G3) | TEAE: Nausea (continuous, 300 mg (N=2), G3) | TEAE: Pain (continuous, 300 mg (N=2), G3) | TEAE: Platelet count decreased (continuous, 300 mg (N=2), G3) | TEAE: Abdominal pain (continuous, 300 mg (N=2), G4) | TEAE: Anemia (continuous, 300 mg (N=2), G4) | TEAE: Constipation (continuous, 300 mg (N=2), G4) | TEAE: Decreased appetite (continuous, 300 mg (N=2), G4) | TEAE: Diarrhea (continuous, 300 mg (N=2), G4) | TEAE: Dyspepsia (continuous, 300 mg (N=2), G4) | TEAE: ECG QT prolonged (continuous, 300 mg (N=2), G4) | TEAE: Fatigue (continuous, 300 mg (N=2), G4) | TEAE: Headache (continuous, 300 mg (N=2), G4) | TEAE: Nausea (continuous, 300 mg (N=2), G4) | TEAE: Pain (continuous, 300 mg (N=2), G4)
four: patients with grade 1 or 2 QT prolongation (whole study)
2 (100) N (%): TEAE: Nausea (continuous, 300 mg (N=2), G1) | TEAE: Platelet count decreased (continuous, 300 mg (N=2), G4)
1 (50) N (%): TEAE: Constipation (continuous, 300 mg (N=2), G1) | TEAE: Diarrhea (continuous, 300 mg (N=2), G1) | TEAE: Headache (continuous, 300 mg (N=2), G1) | TEAE: Anemia (continuous, 300 mg (N=2), G2) | TEAE: Decreased appetite (continuous, 300 mg (N=2), G3) | TEAE: Fatigue (continuous, 300 mg (N=2), G3)
2 * patients: DLTs (Cohort 11, 300 mg, Schedule 2 (continuous), 2 patients, grade 2 and grade 4 thrombocytopenia)
38%: TEAE: Diarrhea (continuous dosing cohort) | TEAE: Headache (continuous dosing cohort)
1 (17) N (%): TEAE: Abdominal pain (continuous, 200 mg (N=6), G1) | TEAE: Decreased appetite (continuous, 200 mg (N=6), G1) | TEAE: Dyspepsia (continuous, 200 mg (N=6), G1) | TEAE: ECG QT prolonged (continuous, 200 mg (N=6), G1) | TEAE: Fatigue (continuous, 200 mg (N=6), G1) | TEAE: Pain (continuous, 200 mg (N=6), G1) | TEAE: Platelet count decreased (continuous, 200 mg (N=6), G1) | TEAE: Abdominal pain (continuous, 200 mg (N=6), G2) | TEAE: Anemia (continuous, 200 mg (N=6), G2) | TEAE: Dyspepsia (continuous, 200 mg (N=6), G2) | TEAE: ECG QT prolonged (continuous, 200 mg (N=6), G2) | TEAE: Pain (continuous, 200 mg (N=6), G2) | TEAE: Platelet count decreased (continuous, 200 mg (N=6), G2)
0 patients: DLTs (Cohort 1, 30 mg, Schedule 1 (4:3), 1 patient) | DLTs (Cohort 2, 60 mg, Schedule 1 (4:3), 2 patients) | DLTs (Cohort 3, 90 mg, Schedule 1 (4:3), 1 patient) | DLTs (Cohort 4, 120 mg, Schedule 1 (4:3), 1 patient) | DLTs (Cohort 5, 150 mg, Schedule 1 (4:3), 1 patient) | DLTs (Cohort 6, 180 mg, Schedule 1 (4:3), 1 patient) | DLTs (Cohort 7, 210 mg, Schedule 1 (4:3), 1 patient) | DLTs (Cohort 8, 270 mg, Schedule 1 (4:3), 3 patients) | DLTs (Cohort 9, 350 mg, Schedule 1 (4:3), 3 patients) | DLTs (Cohort 12, 200 mg, Schedule 2 (continuous), 6 patients)
14 (41.2%) patients (%): patients with serious adverse events (SAEs) (all patients (n = 34), one treatment-related (grade 3 nausea))
47.1%: TEAE: Fatigue (all patients (n = 34))
41.2%: TEAE: decreased platelet count (thrombocytopenia) (all patients (n = 34))
70.6%: TEAE: Nausea (all patients (n = 34))
nine: patients with grade > 3 treatment-related TEAEs (all patients (n = 34))
15: number of grade > 3 treatment-related TEAEs (all patients (n = 34))
33 (97.1%) patients (%): patients with a treatment-related TEAE (all patients (n = 34))
32.4%: TEAE: anorexia (all patients (n = 34))
200 mg: maximum tolerated dose (MTD) (continuous dosing)
450 mg: maximum tolerated dose (MTD) (4:3 intermittent dosing)
18 (52.9%) patients (%): patients with Grade > 3 TEAEs (all patients (n = 34))
